Among the data in ChEMBL document CHEMBL5233274, “Current Landscape and Future Perspective of Oxazolidinone Scaffolds Containing Antibacterial Drugs” (J Med Chem, 2021) are MIC and zone of inhibition values, retold here.

Common to all, as to format: functional
For assay [1], the system named is Pseudomonas aeruginosa. The assay can be described thus: Antibacterial activity against Pseudomonas aeruginosa assessed as inhibition of bacterial growth incubated for 18 hrs by CLSI protocol based method.
Assay [2] concerns Escherichia coli. Kind of assay: Antibacterial activity against Escherichia coli assessed as inhibition of bacterial growth incubated for 18 hrs by CLSI protocol based method.
In assay [3] the test system is Bacillus subtilis. The assay can be described thus: Antibacterial activity against Bacillus subtilis assessed as inhibition of bacterial growth measured per 100 uL incubated for 24 hrs by agar well diffusion method. (In general: In agar diffusion tests the substance spreads into inoculated agar from a disc or well.)
In assay [4] the test system is Escherichia coli. Kind of assay: Antibacterial activity against Escherichia coli assessed as inhibition of bacterial growth measured per 100 uL incubated for 24 hrs by agar well diffusion method.
A further assay relates to Saccharomyces cerevisiae. Kind of assay: Antifungal activity against Saccharomyces cerevisiae assessed as inhibition of fungal growth incubated measured per 100 uL incubated for 24 hrs by agar well diffusion method.
The test system of the next assay is Candida albicans. Kind of assay: Antifungal activity against Candida albicans assessed as inhibition of fungal growth incubated measured per 100 uL incubated for 24 hrs by agar well diffusion method.
Assay [5] concerns Pseudomonas aeruginosa. The assay can be described thus: Antibacterial activity against Pseudomonas aeruginosa assessed as inhibition of bacterial growth measured per 100 uL incubated for 24 hrs by agar well diffusion method.
In assay [6] the test system is Staphylococcus aureus. Kind of assay: Antibacterial activity against Staphylococcus aureus assessed as inhibition of bacterial growth measured per 100 uL incubated for 24 hrs by agar well diffusion method.
Assay [7] has as its system Staphylococcus aureus. Kind of assay: Antibacterial activity against linezolid and methicillin-resistant Staphylococcus aureus assessed as inhibition of bacterial growth.
The subject of the next assay is Enterococcus. The assay can be described thus: Antibacterial activity against linezolid and vancomycin-resistant Enterococcus assessed as inhibition of bacterial growth.
The subject of assay [8] is Bacillus subtilis. Kind of assay: Antimicrobial activity against Bacillus subtilis assessed as inhibition zone at 200 ug/ml incubated for 24 hrs by disk diffusion method. The settings on record: read-out: IZ.
Assay [9] relates to Escherichia coli. The assay can be described thus: Antimicrobial activity against Escherichia coli assessed as inhibition zone at 200 ug/ml incubated for 24 hrs by disk diffusion method. The settings on record: read-out: IZ.
Another assay relates to Fusarium oxysporum. Kind of assay: Antimicrobial activity against Fusarium oxysporum assessed as inhibition zone at 200 ug/ml incubated for 24 hrs by disk diffusion method. The settings on record: read-out: IZ.
Assay [10] deals with Bacillus subtilis. The assay can be described thus: Antibacterial activity against Bacillus subtilis assessed as zone of inhibition at 100 ug/ml. The settings on record: read-out: IZ.
Assay [11] relates to Pseudomonas aeruginosa. Kind of assay: Antibacterial activity against Pseudomonas aeruginosa assessed as inhibition of bacterial growth by CLSI protocol based microdilution assay. On the technique in general: Broth dilution looks for growth in wells or tubes with falling amounts of substance.
Assay [12] deals with Staphylococcus aureus. Kind of assay: Antibacterial activity against Staphylococcus aureus assessed as inhibition of bacterial growth by CLSI protocol based microdilution assay.
Assay [13] has as its system Enterococcus faecalis. Kind of assay: Antibacterial activity against Enterococcus faecalis ATCC 29212 assessed as inhibition of bacterial growth by CLSI protocol based microdilution assay.
For a further assay, the system named is Listeria monocytogenes. The assay can be described thus: Antibacterial activity against Listeria monocytogenes assessed as inhibition of bacterial growth by CLSI protocol based microdilution assay.
Assay [14] deals with Enterococcus faecalis. The assay can be described thus: Antibacterial activity against Enterococcus faecalis ATCC 51299 assessed as inhibition of bacterial growth by CLSI protocol based microdilution assay.
Assay [15] relates to Escherichia coli. Kind of assay: Antibacterial activity against Escherichia coli assessed as zone of inhibition at 100 ug/ml. To be noted: read-out: IZ.

Values after ≈ are worked out from the molar mass of the structure shown. Values joined by “and” are separate entries in the source; they are usually repeats but may differ in a detail not shown here. Equal values may be shown once. A value given as a limit tells only on which side of the number the result lay.

In the case of `O=C(NO)[C@@H]1CN(c2ccc(C#Cc3ccccc3)cc2)C(=O)O1`, the MIC in the assay with Pseudomonas aeruginosa [1] is over 10 µg/mL; in the assay with Escherichia coli [2], 0.625 µg/mL (≈ 1.94 µM).

As to `O=C1NC(Cc2ccc(Nc3nc(-c4ccc(Br)cc4)cs3)cc2)CO1` (configuration not stated), the MIC with Bacillus subtilis [3] was determined as 6.25 µg; with Escherichia coli [4], 12.5 µg; with Saccharomyces cerevisiae it was 12.5 µg; with Candida albicans, 12.5 µg; in the assay on Pseudomonas aeruginosa [5], 12.5 µg; in the assay with Staphylococcus aureus [6], 6.25 µg.

For the molecule `O=C(CCl)NC[C@H]1CN(c2ccc(N3CCOCC3)c(F)c2)C(=O)O1`, the MIC in the assay on Staphylococcus aureus [7] and with Enterococcus was 0.13 µg/mL (≈ 0.35 µM) in each case.

Consider `O=C1NC(Cc2ccc(Nc3nc(-c4ccc([N+](=O)[O-])cc4)cs3)cc2)CO1` (configuration not stated), for which the MIC came out at 6.25 µg in the assay with Bacillus subtilis [3]; 12.5 µg in the assay on Escherichia coli [4]; 12.5 µg with Saccharomyces cerevisiae; 12.5 µg in the assay with Candida albicans; 12.5 µg in the assay on Pseudomonas aeruginosa [5]; 6.25 µg in the assay on Staphylococcus aureus [6].

For `COc1ccc(/C=C2\OC3(COC(=O)N3)N(CCCNc3ccnc4cc(Cl)ccc34)C2=O)cc1` (configuration not stated), the zone of inhibition at 200 µg/mL amounted to 10 mm with Bacillus subtilis [8], 11 mm in the assay on Escherichia coli [9] and 9 mm in the assay on Fusarium oxysporum.

With `CCCN1C(=O)C(N2C(=O)OCC2Cc2ccc(/N=C/c3ccccc3)cc2)C1c1ccc(OC)cc1OC` (configuration not stated), in the assay on Bacillus subtilis [10], the zone of inhibition at 100 µg/mL came to 23 mm.

With `O=C(NO)[C@@H]1CN(c2ccc(C#CC#CC3CCCC3)cc2)C(=O)O1`, the figures for the MIC with Pseudomonas aeruginosa [1] and with Escherichia coli [2] were over 10 µg/mL and 0.015 µg/mL (≈ 0.0443 µM), respectively.

As to `CNS(=O)(=O)c1ccc(C#CC#Cc2ccc(N3C[C@@H](C(=O)NO)OC3=O)cc2)cc1`, the MIC is over 10 µg/mL in the assay with Pseudomonas aeruginosa [1] and 0.078 µg/mL (≈ 0.177 µM) in the assay on Escherichia coli [2].

Regarding `O=C1NC(Cc2ccc(Nc3nc(-c4ccc(F)cc4)cs3)cc2)CO1` (configuration not stated), the MIC with Bacillus subtilis [3], with Escherichia coli [4], in the assay with Saccharomyces cerevisiae, with Candida albicans, in the assay on Pseudomonas aeruginosa [5] and with Staphylococcus aureus [6] was 12.5 µg in each case.

Turning to `O=C(NO)[C@@H]1CN(c2ccc(C#CC#Cc3ccccc3)cc2)C(=O)O1`, the figures for the MIC with Pseudomonas aeruginosa [1] and with Escherichia coli [2] were over 10 µg/mL and 0.12 µg/mL (≈ 0.346 µM), respectively.

Consider `O=C(NC[C@H]1CN(c2ccc(N3CCOCC3)c(F)c2)C(=O)O1)C(Cl)Cl`, for which the MIC in the assay on Staphylococcus aureus [7] and in the assay with Enterococcus was 0.25 µg/mL (≈ 0.615 µM) in each case.

On to `O=C(N[C@H](CO)[C@H](O)c1ccc([N+](=O)[O-])cc1)C(Cl)Cl` [CHLORAMPHENICOL], for which the MIC in the assay with Pseudomonas aeruginosa [11], with Staphylococcus aureus [12], with Enterococcus faecalis [13], in the assay with Listeria monocytogenes and with Enterococcus faecalis [14] was 50 µg/mL (≈ 155 µM) in each case. For the same molecule, the results for the zone of inhibition at 100 µg/mL in the assay on Bacillus subtilis [10] and in the assay with Escherichia coli [15] were 37 mm and 38 mm, respectively.

As for `O=C(NO)[C@@H]1CN(c2ccc(C#CC#CC3CC3)cc2)C(=O)O1`, the MIC was over 10 µg/mL in the assay with Pseudomonas aeruginosa [1] and 0.03 µg/mL (≈ 0.0967 µM) with Escherichia coli [2].

Consider `Nc1ccc(C#CC#Cc2ccc(N3C[C@@H](C(=O)NO)OC3=O)cc2)cc1`, for which the results for the MIC in the assay with Pseudomonas aeruginosa [1] and in the assay on Escherichia coli [2] were over 10 µg/mL and 0.02 µg/mL (≈ 0.0553 µM), respectively.

On to `O=C1NC(Cc2ccc(Nc3nc(-c4ccccc4F)cs3)cc2)CO1` (configuration not stated), for which the MIC in the assay with Bacillus subtilis [3], in the assay on Escherichia coli [4], in the assay with Saccharomyces cerevisiae, in the assay with Candida albicans, in the assay with Pseudomonas aeruginosa [5] and in the assay with Staphylococcus aureus [6] was 12.5 µg in each case.

Consider `O=C1NC(Cc2ccc(Nc3nc(-c4c(O)oc(O)cc4=O)cs3)cc2)CO1` (configuration not stated), for which the MIC in the assay on Bacillus subtilis [3] was 25 µg; in the assay on Escherichia coli [4], 12.5 µg; with Saccharomyces cerevisiae (24 h) it was 12.5 µg and 6.25 µg; in the assay on Candida albicans, 12.5 µg; with Pseudomonas aeruginosa [5], 6.25 µg; with Staphylococcus aureus [6], 6.25 µg.
